Data taken from patent US5330897A, “Sialic acid binding lectin of protozoan origin” (South Alabama Medical Science Foundation, priority 1992, dated 1994).

B1: Fetuin: sialoconjugate (sialoglycoprotein) (protein, UniProt P12763 19-359, looked up)
Alpha-2-HS-glycoprotein: IPLDPVAGYKEPACDDPDTEQAALAAVDYINKHLPRGYKHTLNQIDSVKVWPRRPTGEVYDIEIDTLETTCHVLDPTPLANCSVRQQTQHAVEGDCDIHVLKQDGQFSVLFTKCDSSPDSAEDVRKLCPDCPLLAPLNDSRVVHAVEVALATFNAESNGSYLQLVEISRAQFVPLPVSVSVEFAVAATDCIAKEVVDPTKCNLLAEKQYGFCKGSVIQKALGGEDVRVTCTLFQTQPVIPQPQPDGAEAEAPSAVPDAAGPTPSAAGPPVASVVVGPSVVAVPLPLHRAHYDLRHTFSGVASVESSSGEAFHVGKTPIVGQPSIPGGPVRLCPGRIRYFKI

Legend:
[1] = system: T. mobilensis cell-free lysate hemagglutinin; assay: Inhibition of HA activity of T. mobilensis cell-free lysate; assay type: biochemical, Tritrichomonas mobilensis
[2] = system: T. foetus cell-free lysate hemagglutinin; assay: Inhibition of HA activity of T. foetus cell-free lysate; assay type: biochemical, Tritrichomonas foetus
[3] = system: T. augusta cell-free lysate hemagglutinin; assay: Inhibition of HA activity of T. augusta cell-free lysate; assay type: biochemical, Tritrichomonas augusta
T. mobilensis lectin = assay: Inhibition of T. mobilensis lectin-mediated hemagglutination; assay type: biochemical, Tritrichomonas mobilensis; details: for Minimal Inhibitory Conc.: 2 units of hemagglutinin; for Inhibition of HA activity of purified lectin (in words): concentrations up to 100 mM where stated
live T. mobilensis = assay: Slide agglutination of live T. mobilensis by lectins; assay type: cell-based, Tritrichomonas mobilensis; details: carbohydrate 100 mM
Procedure: Agglutination of live T. mobilensis with lectins with various carbohydrate binding specificities was performed by a slide agglutination assay. Lectin Kit LK-2000 (Vector Laboratories) consisted of the following lectins: concanavalin A (ConA), wheat germ agglutinin (WGA), soybean agglutinin (SBA), gorse seed agglutinin (UEA-1), castor bean agglutinin type 1 (RCA-1), peanut agglutinin (PNA), and horse gram agglutinin (DBA). Limulus polyphemus lectin (LPA) was obtained from Sigma, and Limax flavus (LFA) agglutinin from EY Labs. Lectins and specific carbohydrates were dissolved in buffers recommended by the manufacturers. Twenty five μl of washed T. mobilensis (about 2×10^7 /ml) were placed onto a glass slide. An equal volume of lectin (200 μg/ml) or lectin with specific carbohydrate (final concentration, 100 mM) was added. After mixing for 2 to 3 min, the agglutination was evaluated under a microscope.

[4] = system: sialidase from T. mobilensis; assay: Inhibition of sialidase activity associated with the affinity column; assay type: biochemical, Tritrichomonas mobilensis; details: 1 mM inhibitor
Procedure: Free sialic acid release from bovine submaxillary mucin was used to determine enzymatic activity. Sample to be tested (total volume 50 μl) was mixed with 250 μl of 0.1M acetate, pH 5.0 and 200 μl of 1% mucin in water. After incubation at 37° for 30 minutes, 0.5 ml of 5% phosphotungstic acid in 2.5N HCl was added with vortexing. Assay tubes were centrifuged at 2000×g for 10 minutes, and 250 μl of the supernatant was assayed for sialic acid by the thiobarbituric acid method (Warren, J. Biol. Chem. 234:1971-1975 (1959)). Activity was calculated as μmoles of sialic acid released during a 30 min incubation at 37°. Controls were identical samples precipitated by phosphotungstic acid before the 37° incubation.
The sialidase(s) from T. mobilensis can be separated from HA activity by carefully controlling elution conditions from the affinity column. […] Affinity purified lectin is not inhibited at inhibitor concentrations up to 100 mM, while the sialidase activity associated with the column is inhibited by 50% at 1 mM inhibitor. […] Alternatively, they may simply reflect the affinity of the sialidase for mucin.

[5] = system: T. mobilensis hemolysis of erythrocytes; assay: Whole organism hemolysis assay, inhibition; assay type: cell-based, Tritrichomonas mobilensis
Excerpt: Tritrichomonas mobilensis, an enteric parasite of squirrel monkeys, adheres readily to isolated monkey intestinal epithelial cells and agglutinates human erythrocytes in vitro. These activities are mediated by a sialic acid binding lectin. Hemagglutination by either parasites or purified lectin is inhibited by N-acetylneuraminic acid and anti-lectin monoclonal antibody (MAB), but not by 2,3-dehydro-2-desoxy-N-acetylneuraminic acid, a neuraminidase inhibitor. T. mobilensis hemolyzes erythrocytes in a modification of a previously published whole organism hemolysis assay. Hemolysis is inhibited by N-acetylneuraminic acid, 2,3-dehydro-2-desoxy-N-acetylneuraminic acid, anti-lectin MAB, T. mobilensis lectin and other sialic acid binding lectins, fetuin, and colominic acid, but not by asialofetuin, or leupeptin. Desialated erythrocytes are neither agglutinated nor hemolyzed.

[6] = system: live T. mobilensis flagellates; assay: Inhibition of hemagglutination by live T. mobilensis; details: sugars up to 100 mM; normal erythrocytes, room temperature
[7] = system: T. mobilensis attachment to CHO cells; assay: Carbohydrate inhibition of T. mobilensis adherence to CHO cells; assay type: cell-based, Tritrichomonas mobilensis; details: concentration-dependent; other carbohydrates up to 100 mM
Procedure: The kinetics of T. mobilensis-CHO trypsin-dispersed cell interactions were studied in a cell suspension system. Equal volumes (100 μl) of 10^5 CHO cells and 10^6 (unless otherwise specified) trichomonads resuspended in serum-free M199 were mixed in microfuge tubes and incubated at room temperature (unless otherwise stated) with gentle agitation. Periodically the percentage of CHO cells with adherent flagellates was determined microscopically in wet-mount preparations, 100 CHO cells being examined in each preparation.

live cells of T. foetus = assay: Inhibition of HA by live cells of T. foetus; assay type: cell-based, Tritrichomonas foetus

| Molecule | Conc. required to inhibit 2 HA units, T. mobilensis ([1]; carbohydrates, […]) [µg/mL] | Conc. required to inhibit 2 HA units, T. foetus ([2]; carbohydrates, […]) [µg/mL] | Conc. required to inhibit 2 HA units, T. augusta ([3]; carbohydrates, […]) [µg/mL] | Minimal Inhibitory Conc. (T. mobilensis lectin; carbohydrates) [mM] | Effect of specific carbohydrate on agglutinating activity of the appropriate lectin (live T. mobilensis) | Inhibition of hemolysis [5] | also measured |
| --- | --- | --- | --- | --- | --- | --- | --- |
| OC[C@H]1OC(O)[C@@H](O)[C@@H](O)[C@@H]1O (stereo partly drawn) [D-mannose] | > 200 | > 200 | > 200 | > 100 | abolished agglutinating activity | – | – |
| CC(=O)N[C@H]1[C@H]([C@H](O)[C@H](O)CO)OC(C(=O)O)=C[C@@H]1O [2,3-dehydro-2-deoxy-N-acetylneuraminic acid] | – | – | – | > 100 | – | inhibited | Inhibition of HA activity of purified lectin (in words) (T. mobilensis lectin): not inhibited; Inhibition of sialidase activity [4]: 50% |
| colominic acid | – | – | – | – | – | inhibited | – |
| O=C(CO)N[C@H]1[C@H]([C@H](O)[C@H](O)CO)OC(O)(C(=O)O)C[C@@H]1O (stereo partly drawn) [N-glycolylneuraminic acid] | – | – | – | 8.3 | – | – | Inhibition of hemagglutination by live T. mobilensis [6]: inhibited |
| CC(=O)N[C@H]1C(O)O[C@H](CO)[C@@H](O)[C@@H]1O (stereo partly drawn) [N-acetylglucosamine] | > 200 | > 200 | > 200 | > 100 | abolished agglutinating activity | – | – |
| C[C@H]1OC(O)[C@H](O)[C@@H](O)[C@H]1O (stereo partly drawn) [D-fucose] | > 200 | > 200 | > 200 | > 100 | abolished agglutinating activity | – | – |
| CC(=O)N[C@H]1[C@H]([C@H](O)[C@H](O)CO)OC(O)(C(=O)O)C[C@@H]1O (stereo partly drawn) [N-acetylneuraminic acid] | 5 | > 200 | 10 | 2.0 | – | inhibited | Inhibition of HA activity of purified lectin (in words) (T. mobilensis lectin): inhibited; Inhibition of attachment of parasites to CHO cells [7]: inhibited; Inhibition of hemagglutination by live T. mobilensis [6]: inhibited |
| N-acetylneuraminic acid-lactose [sialyllactose] | – | – | – | – | – | – | Inhibition of attachment of parasites to CHO cells [7]: inhibited; Inhibition of hemagglutination by live T. mobilensis [6]: inhibited |
| OC[C@H]1OC(O)[C@H](O)[C@@H](O)[C@H]1O (stereo partly drawn) [D-galactose] | > 200 | > 200 | > 200 | > 100 | abolished agglutinating activity | – | – |
| CC(=O)N[C@H]1C(O)O[C@H](CO)[C@H](O)[C@@H]1O (stereo partly drawn) [N-acetylgalactosamine] | > 200 | > 200 | > 200 | > 100 | abolished agglutinating activity | – | – |
| B1 | – | – | – | – | – | inhibited | Conc. required to inhibit 2 HA units, T. mobilensis ([1]; sialoglycoproteins): 100 µg/mL; Conc. required to inhibit 2 HA units, T. foetus ([2]; sialoglycoproteins): 60 µg/mL; Conc. required to inhibit 2 HA units, T. augusta ([3]; sialoglycoproteins): 100 µg/mL; Conc. required to Inhibit 2 HA Units (live cells of T. foetus): 60 µg/mL; Minimal Inhibitory Conc. (T. mobilensis lectin; glycoproteins or proteins): 8.33 µg/mL |
